Experimental findings from article PMC11984905, “Chiral Switch of Gadopiclenol: New Standards in MRI Probes” (Advanced Science, 2025) are described below.

Data set [1] is described as follows: Stability and protonation constants of Cu(II)-complexes (spectrophotometry, pH-potentiometry). The class given is physicochemical. The settings on record: 0.15 M NaCl, 25 °C. On the procedure:
The stability constants of the Cu(II)‐complexes with rac‐L1, ent‐L1, rac‐L2 and ent‐L2 ligands were determined by spectrophotometry studying the Cu(II) – rac‐L1, Cu(II) – ent‐L1, Cu(II) – rac‐L2 and Cu(II) – ent‐L2 systems at the absorption band of Cu(II)‐complexes at [H^+] = 0.01–1.0 M in the wavelength range of 400–800 nm. The concentrations of CuCl2, rac‐L1, ent‐L1, rac‐L2 and ent‐L2 ligands were 0.002 M. The H^+ concentration in the samples was adjusted with the addition of calculated amounts of 3 M HCl. (I = [Na^+]+[H^+] = 0.15, [H^+]≤0.15 M). The samples were kept at 25 °C for a week. The absorbance values of the samples were determined at 11 wavelengths (575, 595, 615, 635, 655, 675, 695, 715, 735, 755, and 775 nm). For the calculations of the stability and protonation constants of the Cu(II)‐complexes, the molar absorptivities of CuCl2 and Cu(II)‐complexes were determined by recording the spectra of 1.0 × 10^−3, 1.5 × 10^−3, 2.0 × 10^−3, and 2.5 × 10^−3 M solutions of CuCl2 and Cu(II)‐complexes in the pH range of 1.7–7.5. The pH was adjusted by stepwise addition of concentrated NaOH or HCl solutions. The spectrophotometric measurements were made with a PerkinElmer Lambda 365 UV–vis spectrophotometer at 25 °C, using 1.0 cm cells.
The stability and protonation constants of Cu(II) complexes with rac-L1, ent-L1, rac-L2 and ent-L2 have been determined by spectrophotometry. The equilibrium reaction (Equation (S8)) has been studied in the [H^+] range of 0.01 – 1.0 M (the ionic strength was constant I=[Na^+]+[H^+]=0.15 in the samples [H^+]≤0.15 M), where the formation of Cu^2+, CuHx-yL and HxL species was assumed ([Cu(rac-L1)]^4- and [Cu(ent-L1)]^4-: x=6 and 7, y=4 and 5; [Cu(rac-L2)]^4- and [Cu(ent-L2)]^4-: x=3 and 4, y=1 and 2).
The protonation constants of Cu(II)-complexes with rac-L1, ent-L1, rac-L2 and ent-L2 have been determined by pH-potentiometric and spectrophotometric titrations of the complexes in the pH range 1.7 – 7.0. These studies reveal that [Cu(rac-L1)]^4- and [Cu(ent-L1)]^4- complexes can form mono-, di-, tri, tetra- and penta-protonated species via the protonation of all distant and two closer carboxylate groups of the pendant arms. Moreover, the pH potentiometric studies also indicate that the [Cu(rac-L2)]^- and [Cu(ent-L2)]^- complexes can form mono- and di-protonated species via the protonation of two carboxylate groups. […] Moreover, the maximum of the absorption band for the [Cu(H5L)]^+ species in Cu^2+ – ent-L1 system is also similar to that of [Cu(H2L)]^+ in Cu^2+ – ent-L2 system ([…], Figures S45 and S47). The maximum of the absorption band is shifted from 730 to 750 nm by the deprotonation of [Cu(H5L)]^+ and [Cu(H2L)]^+ via the formation of [Cu(H4L)] and [Cu(HL)] species in Cu^2+– rac-L1 and Cu^2+– rac-L2 systems (Figures S44 and S46).

Data set [2] can be described thus: Protonation constants of the ligands (pH-potentiometry). The settings on record: 0.15 M NaCl, 25 °C; for ΣlogKi^H: total basicity. Format: physicochemical. On the procedure:
The protonation constants of ligands, the stability and protonation constants of Ca(II)‐ and Zn(II)‐complexes formed with rac‐L1, ent‐L1, rac‐L2, and ent‐L2 ligands were determined by pH‐potentiometric titration. The metal‐to‐ligand concentration ratio was 1:1 (the concentration of the ligand was generally 0.002 M). The protonation constants of the Cu(II)‐ and Gd(III)‐complexes were determined using pH‐potentiometry by titrating the pre‐prepared complexes from pH 2.0 to 12.0 with 0.2 M NaOH. The stability constants of the Gd(III)‐complexes with rac‐L1 and ent‐L1 ligands were determined by the “out‐of‐cell” technique because of their slow formation reaction. The pH range of the complexation equilibria and the time needed to reach the equilibria were determined by relaxometry. Eight–eight Gd(III) – rac‐L1 and Gd(III) – ent‐L1 samples were prepared, with pH values in the range of 1.7–3.0 at equilibrium ([Gd^3+] = [L] = 0.002 M). The samples were kept at 25 °C for 6 weeks to reach equilibrium. For the calculation of the stability constants of the [Gd(rac‐L1)]^3− and [Gd(ent‐L1)]^3− complexes, besides the protonation constants of ligands and the Gd(III) complexes, the stability constants of the di‐protonated [^*Gd(H2 rac‐L1)]^− and [^*Gd(H2 […])]^− out‐of‐cage complexes (considered as intermediates) was also used as fixed values, which were calculated from the pH‐potentiometric titration curve of the Gd(III) – rac‐L1 and Gd(III) – ent‐L1 system obtained in the pH range of 1.7–7.0.
For the pH measurements and titrations, the Metrohm 888 Titrando titration workstation Metrohm‐6.0234.110 combined electrode was used. Equilibrium measurements were carried out at a constant ionic strength (0.15 M NaCl) in 6 mL samples at 25 °C. The solutions were stirred, and N2 was bubbled through them. The titrations were made in the pH range 1.7–12.0. KH‐Phthalate (pH 4.005) and borax (pH 9.177) buffers were used to calibrate the pH meter. For the calculation of [H^+] from the measured pH values, the method proposed by Irving et al. was used as follows.^[ [46] ^] A 0.01M HCl solution was titrated with standardized NaOH solution at 0.15 M NaCl ionic strength. The differences (A) between the measured (pHread) and calculated pH (‐log[H^+]) values were used to obtain the equilibrium H^+ concentration from the pH values measured in the titration experiments (A = 0.02). For the equilibrium calculations, the stoichiometric water ionic product (pK w) was also needed in order to calculate [OH^−] values under basic conditions. The VNaOH – pHread data pairs of the HCl – NaOH titration obtained in the pH range 10.5–12.0 were used to calculate the pK w value (pK w = 13.83).
The protonation constants of ligands, defined by Equation (S1), were determined by pH-potentiometry.
where i=1, 2…7. Standard deviations (3σ) are shown in parentheses. In Table S16, the logKi^H values of rac-L1 and rac-L2 can be regarded as the weighted average of the given protonation constant characterizing the basicity of the related protonation site in the different stereoisomers.

As to `O=C(CCC(C(=O)O)N1CCN(C(CCC(=O)NCC(O)CO)C(=O)O)Cc2cccc(n2)CN(C(CCC(=O)NCC(O)CO)C(=O)O)CC1)NCC(O)CO` (racemic) [rac‐L2], in data set [1], the “logK CuL” value was 21.04 (5), the logKCuH2L is on record as 2.58 (5) and the logKCuHL is given as 4.42 (4). In addition, in data set [2], the “logK1^H” value is reported as 9.58 (1), the “logK2^H” value is recorded as 5.96 (2), the “logK3^H” value was 4.30 (3) and the “logK4^H” value is 2.86 (3). In addition, in data set [2], the “ΣlogKi^H” value came to 22.70.
For the compound `O=C(CCC(C(=O)O)N1CCN(C(CCC(=O)NCC(O)CO)C(=O)O)Cc2cccc(n2)CN(C(CCC(=O)NCC(O)CO)C(=O)O)CC1)NCC(O)CO` (stereo not drawn) [ent‐L2], in data set [1], the “logK CuL” value is listed as 21.52 (4), the logKCuH2L is 1.44 (1) and the logKCuHL is 3.27 (1). In data set [2], the “logK1^H” value is 10.43(1), the “logK2^H” value is listed as 5.95 (1), the “logK3^H” value is reported as 4.08 (1) and the “logK4^H” value is 2.05 (2). Besides, the “ΣlogKi^H” value in data set [2] stood at 22.51.
Regarding `O=C(O)CCC(C(=O)O)N1CCN(C(CCC(=O)O)C(=O)O)Cc2cccc(n2)CN(C(CCC(=O)O)C(=O)O)CC1` (racemic) [rac‐L1, 2,2’,2’’-[3,6,9,15-tetraazabicyclo[9.3.1]pentadeca-1(15),11,13-triene-3,6,9-triyl]tripentanedioic acid], in data set [1], the “logK CuL” value is listed as 23.26(4), the logKCuH2L is recorded as 4.80 (2), the logKCuH3L was 4.28 (2) and the logKCuH4L was 3.69 (2). Besides, in data set [1], the logKCuH5L is on record as 2.33 (2) and the logKCuHL is on record as 5.38 (3). In data set [2], the “logK1^H” value is on record as 10.58 (1), the “logK2^H” value was 6.99 (1), the “logK3^H” value is on record as 5.50 (1) and the “logK4^H” value is 4.82 (1). For the same compound, in data set [2], the “logK5^H” value was 4.23 (1), the “logK6^H” value is 3.65 (1), the “logK7^H” value was 2.34 (2) and the “ΣlogKi^H” value came to 38.11.
For the compound `O=C(O)CCC(C(=O)O)N1CCN(C(CCC(=O)O)C(=O)O)Cc2cccc(n2)CN(C(CCC(=O)O)C(=O)O)CC1` (stereo not drawn) [ent‐L1], in data set [1], the “logK CuL” value is listed as 23.22 (6), the logKCuH2L is 4.72 (2), the logKCuH3L is 4.11 (2) and the logKCuH4L is recorded as 3.36 (2). Also, in data set [1], the logKCuH5L was 1.31 (2) and the logKCuHL is 5.25 (2). Further, in data set [2], the “logK1^H” value is given as 10.62 (1), the “logK2^H” value is 6.82 (1), the “logK3^H” value is listed as 5.50 (2) and the “logK4^H” value is 4.89 (2). Besides, in data set [2], the “logK5^H” value is on record as 4.19 (2), the “logK6^H” value was 3.88 (2), the “logK7^H” value is listed as 2.30 (2) and the “ΣlogKi^H” value is listed as 38.20.
